The text below walks through data of PMC10892120, “Design, Synthesis and Biological Assessment of N′-(2-Oxoindolin-3-ylidene)-6-methylimidazo[2,1-b]thiazole-5-carbohydrazides as Potential Anti-Proliferative Agents toward MCF-7 Breast Cancer” (Pharmaceuticals, 2024).

Series [1] concerns MCF-7. The experiment in a line: Cell cycle analysis (propidium iodide flow cytometry) in MCF-7. The series is classed as cell-based. Particulars: MCF-7 cell cycle distribution. The protocol: Compound 6i arrested cells in the G2/M phase with %G2/M = 27.07, compared with %G2/M = 11.31 for the control MCF-7 (Table 5 and Figure 4).
(§1) These were performed using the approach described in the Supplementary Data, page 44 [46]. […]
(§2) thoroughly, and then centrifuge at 4°C to collect contents to the bottom of the tube. Chill on ice before using. Centrifuge again briefly at 4°C if needed. Preparation of a reaction cocktail is crucial in quantitative PCR applications to reduce pipetting errors and maximize assay precision and accuracy. Assemble the reaction cocktail with all required components except sample template (total RNA) and dispense equal aliquots into each reaction tube. Add target sample to each reaction as the final step. Addition of sample as 5–10 μl volumes will improve assay precision. Replicate samples should be assembled as a master mix with a single addition of sample template.
(§3) Cell cycle analysis and apoptosis
(§4) Transfer the previously prepared cells from 4 °C to the bench-top and equilibrate to room temperature. Gently re-suspend cells by inverting the tube or by gentleup and down pipetting.
(§5) There may be visible thin salt crystals in the tube but this will not affect the sedimentation of the cells in the next step. Pellet the cells at 500 x g for 5 minutes. Carefully aspirate the supernatant without disrupting the pellet. It is better to incompletely remove the supernatant than to accidently aspirate part of the pellet and lose cells. Wash the cells by gently resuspending in 1 mL 1X PBS.
Again, pellet the cells at 500 x g for 5 minutes and carefully remove the supernatant. Gently resuspend the cell pellet in 200 μL 1X Propidium Iodide + RNase Staining Solution. Then ensure that the cells are fully resuspended. Incubate at 37 °C in the dark for 20 – 30 minutes. Place tubes on ice (still in the dark) and prepare for flow cytometry analysis. Gently resuspend cells that settled during the incubation by pipetting up and down. If desired, pass cells through an appropriate filter (not provided) to remove cell aggregates. […] Collect Propidium iodide fluorescence in FL2. […]

The test system of series [2] is MCF-7. The experiment in a line: Apoptotic assay, Annexin V/PI analysis in MCF-7. It is filed as cell-based. Particulars: MCF-7, Annexin V/PI, % given only in Figure 5. The procedure:
In comparison to the control cells, the apoptotic assay employing Annexin V/PI analysis for compound 6i generated a substantial amount of early and late apoptosis in MCF-7. Compound 6i induced early apoptosis in MCF-7 at rate of 22.05, compared with the control MCF-7 (0.43) (Table 6 and Figure 5).
as §1, §2, §3, §4, §5
Again, pellet the cells at 500 x g for 5 minutes and carefully remove the supernatant. Gently resuspend the cell pellet in 200 μL 1X Propidium Iodide + RNase Staining Solution. Then ensure that the cells are fully resuspended. Incubate at 37 °C in the dark for 20 – 30 minutes. Place tubes on ice (still in the dark) and prepare for flow cytometry analysis. Gently resuspend cells that settled during the incubation by pipetting up and down. If desired, pass cells through an appropriate filter (not provided) to remove cell aggregates. Run samples on flow cytometer: Set appropriate FSC vs. SSC gates to exclude debris and cell aggregates. Collect Propidium iodide fluorescence in FL2.
The Protein Data Bank (http://www.rcsb.org) was utilized to obtain the 3D structures of […]
was used to conduct docking studies on established analogues with the VEGFR-2 active site. This program was run with a searching grid that was stretched across ligand molecules, with box […]
parameters set to default. The highest scoring posit ion for every compound was chosen after docking it into the crystal structure. […]

The next series has as its system Caspase-9. The experiment in a line: RT-PCR gene expression in treated MCF-7 cells: caspase 9. The series is classed as cell-based. Particulars: treated MCF-7 cells vs untreated control MCF-7 (=1). The protocol: The gene expression levels of apoptosis genes in MCF-7 cells were measured using RT-PCR to validate the apoptosis-inducing behaviors of the potent lead compound 6i in MCF-7 cells.
The gene expression levels of apoptosis genes were evaluated in MCF-7 cells using the following approaches in the Supplementary Data, page 43.
Inhibitor solution of each well labeled as “Test Inhibitor”. For the “Positive Control" and “Blank”, add 5 μl of the same solution without inhibitor (Inhibitor buffer). Prepare 3 ml of 1x Kinase Buffer 1 by mixing 600 μl of 5x Kinase Buffer 1 with 2400 μl water. 3 ml of 1x Kinase Buffer 1 is sufficient for 100 reactions. To the wells designated as "Blank", add 20 μl of 1x Kinase Buffer 1.
Thaw VEGFR2 enzyme on ice. Upon first thaw, briefly spin tube containing enzyme to recover full content of the tube. Calculate the amount of VEGFR2 required for the assay and dilute enzyme to 1 ng/μl with 1x Kinase Buffer 1. Store remaining undiluted enzyme in aliquots at -80°C. Note:
VEGFR2 enzyme is sensitive to freeze/thaw cycles. Avoid multiple freeze/thaw cycles. […]
use thawed aliquots or diluted enzyme. […]
thoroughly, and then centrifuge at 4°C to collect contents to the bottom of the tube. […] Preparation of a reaction cocktail is crucial in quantitative PCR applications to reduce pipetting errors and maximize assay precision and accuracy. […]

In turn, `CCCCN1C(=O)C(=NNC(=O)c2c(C)nc3sccn23)c2ccccc21` [Compound 6i, N′-(1-Butyl-2-oxoindolin-3-ylidene)-6-methylimidazo[2,1-b]thiazole-5-carbohydrazide] returned a melting point of 250 to 251 °C. Moreover, in the series on MCF-7 [1] (control 11.31), the “%G2/M” value is 27.07%. In the series with MCF-7 [1] (control 23.96), the “%S” value came out at 19.27%. Moreover, the “%G0–G1” value in the series on MCF-7 [1] (control 64.73) came out at 53.66%. In addition, the “Apoptosis Late” value in the series on MCF-7 [2] (control 0.11) is given as 7.61%. In the series on MCF-7 [2] (control 0.43), the “Apoptosis Early” value is listed as 22.05%. Besides, the Necrosis in the series on MCF-7 [2] (control 1.37) was found to be 3.15%. The “Apoptosis Total” value in the series on MCF-7 [2] (control 1.91) worked out at 32.81%. Besides, in the series on Caspase-9, the “RT-PCR Fold Change Caspase-9” value turned out to be 4.947 fold.
